Data taken from patent US20190105337A1, “METHODS OF TREATING BACTERIAL INFECTIONS” (priority 2015, published 2019).

Assays:
[1] = clinical; conditions: human, in vivo; for clearance: Plasma Clearance; for Vd: Vss
Protocol: The combination of both drugs was administered on day 7. All drugs were infused over 3 hours. Plasma and urine samples were obtained and assayed using validated HPLC/MS methods.

[2] = clinical; conditions: human, in vivo; for clearance: Plasma Clearance; for Vd: Vss; remark: listed apart in the source
Protocol: All infusions were administered over 3 hours. Intensive plasma and urine PK sampling was obtained after dosing and assayed using validated HPLC/MS methods.

[3] = Plasma protein binding; type: in vitro ADME
[4] = Example 6: noncompartmental plasma pharmacokinetics after third dose of the Combination (2 g meropenem/2 g Compound I q8h); conditions: for Vss / clearance / Cmax / Tmax: Compound I 2 g q8h; for AUC(0-t) / clearance / Cmax / Tmax / half-life: both, human, plasma, intravenous; for AUC(0-t): AUC0-8, Compound I 2 g q8h; for clearance: CL; for half-life: t1/2, Compound I 2 g q8h
Protocol: (§1) A total of twenty-five (n=25) male and female subjects who met the study entry criteria and completed all phases of the pharmacokinetic study were included in this pharmacokinetic analysis. […] Blood samples were collected to measure drug concentrations in plasma prior to (time 0), and at 1.5, 2.95, 3.083, 3.25, 3.5, 4, 6, and 8 hours after the start of a 3-hour intravenous infusion of the third combination dose.
(§2) (Reports MC14B-0013, MC14B-0015, MC14I-011, and MC14I-0012). The urea concentrations in plasma and BAL were performed with a microplate-based method with an 0-phthalaldehyde chromogenic solution at MicroConstants, Inc., San Diego, Calif.
Peak plasma concentration (Cmax) and time to Cmax (Tmax) were read from the observed plasma concentration-time profile after the start of the intravenous infusion of the third Combination dose. Area under the plasma concentration-time curve over 8 hours (AUC0-8) after the third dose was calculated with the linear-log trapezoidal rule (WinNonlin®, version 6.3, Pharsight Corporation, Cary, N.C.). The elimination rate constant (β) was determined by nonlinear least-squares regression. Elimination half-life (t½) was calculated by dividing β into the natural logarithm of two.

[5] = clinical; conditions: both, human, in vivo
Protocol: as §1
Urea has been commonly used as an endogenous marker to estimate the apparent volume of ELF. Blood samples to determine plasma urea concentrations were obtained just prior to scheduled bronchoscopy. Aliquots of BAL were obtained to determine urea concentrations in BAL and cell count with differential. The standardized bronchoscopy with BAL procedure for the collection of intrapulmonary samples has been previously described in the references listed below.
as §2
The calculations of ELF volume and drug concentrations in ELF and AM were performed with BAL supernatant and pulmonary (alveolar) cells (“cell pellet”) from aspirates recovered from the 2nd, 3rd, and 4th instillations (BAL2). The concentration of drug (ABXELF) in the epithelial lining fluid (ELF) was determined as follows:
[…]
VELF is derived from the following:
where UreaBAL is the concentration of urea in BAL fluid and UreaP is the concentration of urea in plasma.
The concentration of drug (ABXAM) in the alveolar cells (AC) was determined as follows:
Differential cell count was performed to determine the number of macrophages present. A mean macrophage cell volume of 2.42 μl/106 cells was used in the calculations for volume of alveolar cells in the pellet suspension.
The concentration ratios of ELF and AM to the simultaneous plasma concentrations were calculated for each subject and summarized for each group at each sampling time. […] The 8-hour sampling time was also used as a value at time zero for determining the area term of plasma, ELF, and AM. The AUC0-8 for each matrix was determined with the linear trapezoidal method. The ratio of AUC0-8 of ELF to plasma and AM to plasma were calculated.

[6] = AM concentration at time of bronchoscopy and BAL
[7] = ELF concentration at time of bronchoscopy and BAL
[8] = Plasma concentration at time of bronchoscopy and BAL
[9] = Ratio AM to Plasma (total plasma concentration)
[10] = Ratio ELF to Plasma (total plasma concentration)

AUC(0-inf) ([1]; 250 mg): 17.5 µg·h/mL
Cmax ([1]; 250 mg): 5200 ng/mL
half-life ([1]; 250 mg): 1.18 h
clearance ([1]; 250 mg): 245 mL/min
Vd ([1]; 250 mg): 23.1 L
AUC(0-inf) ([1]; 1000 mg): 77.6 µg·h/mL
Cmax ([1]; 1000 mg): 22000 ng/mL
half-life ([1]; 1000 mg): 1.56 h
clearance ([1]; 1000 mg): 222 mL/min
Vd ([1]; 1000 mg): 21.4 L
AUC(0-inf) ([1]; 1500 mg): 124 µg·h/mL
Cmax ([1]; 1500 mg): 37200 ng/mL
half-life ([1]; 1500 mg): 1.21 h
clearance ([1]; 1500 mg): 206 mL/min
Vd ([1]; 1500 mg): 19.4 L
AUC(0-inf) ([2]; 250 mg): 17.5 µg·h/mL
Cmax ([2]; 250 mg): 5200 ng/mL
half-life ([2]; 250 mg): 1.18 h
clearance ([2]; 250 mg): 245 mL/min
Vd ([2]; 250 mg): 23.1 L
AUC(0-inf) ([2]; 1000 mg): 77.6 µg·h/mL
Cmax ([2]; 1000 mg): 22000 ng/mL
half-life ([2]; 1000 mg): 1.56 h
clearance ([2]; 1000 mg): 222 mL/min
Vd ([2]; 1000 mg): 21.4 L
AUC(0-inf) ([2]; 1500 mg): 124 µg·h/mL
Cmax ([2]; 1500 mg): 37200 ng/mL
half-life ([2]; 1500 mg): 1.21 h
clearance ([2]; 1500 mg): 206 mL/min
Vd ([2]; 1500 mg): 19.4 L
fraction unbound [3]: 0.67
Vss ([4]; 1.5-hour BAL Sampling Group): 18.6 ± 2.3 L
Vss ([4]; 3.25-hour BAL Sampling Group): 17.3 ± 2.3 L
Vss ([4]; 4-hour BAL Sampling Group): 16.9 ± 0.9 L
Vss ([4]; 6-hour BAL Sampling Group): 18.1 ± 3.9 L
Vss ([4]; 8-hour BAL Sampling Group): 17.0 ± 3.3 L
Vss ([4]; All Subjects): 17.6 ± 2.6 L
AUC(0-t) ([4]; 1.5-hour BAL Sampling Group): 184 ± 38.6 µg·h/mL
AUC(0-t) ([4]; 3.25-hour BAL Sampling Group): 210 ± 32.2 µg·h/mL
AUC(0-t) ([4]; 4-hour BAL Sampling Group): 214 ± 35.4 µg·h/mL
AUC(0-t) ([4]; 6-hour BAL Sampling Group): 216 ± 33.7 µg·h/mL
AUC(0-t) ([4]; 8-hour BAL Sampling Group): 198 ± 36.6 µg·h/mL
AUC(0-t) ([4]; All Subjects): 204 ± 34.6 µg·h/mL
clearance ([4]; 1.5-hour BAL Sampling Group): 188 mL/min
clearance ([4]; 3.25-hour BAL Sampling Group): 162 mL/min
clearance ([4]; 4-hour BAL Sampling Group): 158 mL/min
clearance ([4]; 6-hour BAL Sampling Group): 158 mL/min
clearance ([4]; All Subjects): 168 mL/min
Cmax ([4]; 1.5-hour BAL Sampling Group): 56100 ± 13000 ng/mL
Cmax ([4]; 3.25-hour BAL Sampling Group): 59700 ± 5800 ng/mL
Cmax ([4]; 4-hour BAL Sampling Group): 60100 ± 5700 ng/mL
Cmax ([4]; 6-hour BAL Sampling Group): 60900 ± 9700 ng/mL
Cmax ([4]; 8-hour BAL Sampling Group): 57900 ± 8800 ng/mL
Cmax ([4]; All Subjects): 59000 ± 8400 ng/mL
Tmax ([4]; 1.5-hour BAL Sampling Group): 2.95 ± 0.01 h
Tmax ([4]; 3.25-hour BAL Sampling Group): 3 ± 0.07 h
Tmax ([4]; 4-hour BAL Sampling Group): 2.98 ± 0.06 h
Tmax ([4]; 6-hour BAL Sampling Group): 3 ± 0.07 h
Tmax ([4]; 8-hour BAL Sampling Group): 2.98 ± 0.06 h
Tmax ([4]; All Subjects): 2.98 ± 0.06 h
half-life ([4]; 1.5-hour BAL Sampling Group): 1.18 ± 0.08 h
half-life ([4]; 3.25-hour BAL Sampling Group): 1.26 ± 0.23 h
half-life ([4]; 4-hour BAL Sampling Group): 1.34 ± 0.26 h
half-life ([4]; 6-hour BAL Sampling Group): 1.37 ± 0.27 h
half-life ([4]; 8-hour BAL Sampling Group): 1.18 ± 0.16 h
half-life ([4]; All Subjects): 1.27 ± 0.21 h
concentration at 1.5 h [5, 6]: 2710 ± 1440 ng/mL
concentration at 3.25 h [5, 6]: 8790 ± 9430 ng/mL
concentration at 4 h [5, 6]: 5510 ± 3150 ng/mL
concentration at 6 h [5, 6]: 27600 ± 39600 ng/mL
concentration at 8 h [5, 6]: 4400 ± 4100 ng/mL
AUC(0-t) ([5]; AUC0-8 based on mean ELF concentrations): 105 µg·h/mL
AUC(0-t) ([5]; AUC0-8 based on median ELF concentrations): 96.7 µg·h/mL
concentration at 1.5 h [5, 7]: 18600 ± 3800 ng/mL
concentration at 3.25 h [5, 7]: 26100 ± 1100 ng/mL
concentration at 4 h [5, 7]: 15700 ± 3400 ng/mL
concentration at 6 h [5, 7]: 8030 ± 5800 ng/mL
concentration at 8 h [5, 7]: 2610 ± 1350 ng/mL
concentration at 1.5 h [5, 8]: 42100 ± 5000 ng/mL
concentration at 3.25 h [5, 8]: 51100 ± 6800 ng/mL
concentration at 4 h [5, 8]: 28200 ± 5300 ng/mL
concentration at 6 h [5, 8]: 10800 ± 2800 ng/mL
concentration at 8 h [5, 8]: 2740 ± 1120 ng/mL
Kp at 1.5 h [5, 9]: 0.062 ± 0.029
Kp at 3.25 h [5, 9]: 0.165 ± 0.163
Kp at 4 h [5, 9]: 0.191 ± 0.101
Kp at 6 h [5, 9]: 2.58 ± 3.57
Kp at 8 h [5, 9]: 1.6 ± 1.1
Kp at 1.5 h [5, 10]: 0.45 ± 0.123
Kp at 3.25 h [5, 10]: 0.508 ± 0.096
Kp at 4 h [5, 10]: 0.57 ± 0.159
Kp at 6 h [5, 10]: 0.705 ± 0.329
Kp at 8 h [5, 10]: 1.01 ± 0.391
Kp ([5]; intrapulmonary penetration based on AUC0-8 of ELF and total plasma concentrations): ~0.53
Kp ([5]; intrapulmonary penetration, unbound plasma concentrations): 0.79
Kp at 6 h ([5]; mean ratio of AM to plasma concentration): 2.58 ± 3.57
Kp ([5]; mean ratios of AM to simultaneous plasma concentration (range)): 0.062 to 2.58
Kp ([5]; mean ratios of ELF to simultaneous plasma concentrations (range)): 0.45 to 1.01
Kp ([5]; ratio of ELF to total plasma concentrations based on mean AUC0-8): 0.53
Kp ([5]; ratio of ELF to total plasma concentrations based on median AUC0-8): 0.48
Kp ([5]; ratio of ELF to unbound plasma concentrations based on mean AUC0-8): 0.79
Kp ([5]; ratio of ELF to unbound plasma concentrations based on median AUC0-8): 0.72
SMILES: O=C(O)C[C@@H]1CC[C@H](NC(=O)Cc2cccs2)B(O)O1 [Compound I]
